Data as given in US20220118116A1, “ADHESIVE/ADSORPTION SWITCH ON NANOPARTICLES TO INCREASE TUMOR UPTAKE AND DELAY TUMOR CLEARANCE” (The Johns Hopkins University, priority 2019, published 2022).
Like-named read-outs stand apart in the source and are kept apart here.

What was measured:
[1] = Leite et al., 2012; cited from earlier work
[2] = tested on: spontaneous MDA-MB-231 axillary lymph node (ALN) metastases; test: Growth control of spontaneous TNBC metastases in vivo (cisplatin); settings: 7.5 mg/Kg i.v., three times in five-day intervals
MDA-MB-231 (ALN2) = test: IC50 on cell monolayers (MTT assay); type: cell-based, human; settings: 6-hour incubation, read-out: IC50 of free cisplatin
Procedure: (§1) To determine the IC50 of liposomal cisplatin and of free cisplatin, 20,000 cells per well were plated in 96-well plates. A range of concentrations of sterilized liposomes (containing or not cisplatin) or of free cisplatin was added to the wells mixed in media (with 10% FBS) at pH 7.4 and pH 6.5. Upon completion of a 6-hour incubation, cells were washed twice with PBS, and 10% FBS-supplemented fresh media was then added to wells. After two doubling times an MTT assay (Promega, Madison, Wis.) was used (following the vendor's instructions) to evaluate percent cell viability. Absorbance was read at 570 nm.
as §1, with “sterile” for “sterilized”, “6 hour” for “6-hour”

MDA-MB-231 (LUNG1) = test: IC50 on cell monolayers (MTT assay); type: cell-based, human; settings: 6-hour incubation, read-out: IC50 of free cisplatin
Procedure: as §1
as §1, with “sterile” for “sterilized”, “6 hour” for “6-hour”

MDA-MB-231 (PRI3) = test: IC50 on cell monolayers (MTT assay); type: cell-based, human; settings: 6-hour incubation, read-out: IC50 of free cisplatin
Procedure: as §1
as §1, with “sterile” for “sterilized”, “6 hour” for “6-hour”

MDA-MB-436 (ATCC) = test: IC50 on cell monolayers (MTT assay); type: cell-based, human; settings: 6-hour incubation, read-out: IC50 of free cisplatin
Procedure: as §1
as §1, with “sterile” for “sterilized”, “6 hour” for “6-hour”

MDA-MB-231 (ATCC) = test: IC50 on cell monolayers (MTT assay); type: cell-based, human; settings: 6-hour incubation, read-out: IC50 of free cisplatin
Procedure: as §1
as §1, with “sterile” for “sterilized”, “6 hour” for “6-hour”

## N.N.[Cl][Pt][Cl] [free cisplatin, cis-diamminedichloroplatinum (II)]
[1]
  reported MTD: 7.5 mg/kg
[2]
  animal survival: shortest animal survival
  animals euthanized because of weight loss: 100%
MDA-MB-231 (ALN2); pH 6.5
  IC50: 40.2 ± 7.4 µM
MDA-MB-231 (ALN2); pH 7.4
  IC50: 39.2 ± 5.9 µM
MDA-MB-231 (LUNG1); pH 6.5
  IC50: 42.6 ± 6.2 µM
MDA-MB-231 (LUNG1); pH 7.4
  IC50: 40.2 ± 6.4 µM
MDA-MB-231 (PRI3); pH 6.5
  IC50: 37.7 ± 13.4 µM
MDA-MB-231 (PRI3); pH 7.4
  IC50: 32.4 ± 7.8 µM
MDA-MB-436 (ATCC); pH 6.5
  IC50: 3.2 ± 0.73 µM
MDA-MB-436 (ATCC); pH 7.4
  IC50: 2.46 ± 0.9 µM
MDA-MB-231 (ATCC); pH 6.5
  IC50: 47.7 ± 4.4 µM
MDA-MB-231 (ATCC); pH 7.4
  IC50: 45.2 ± 8.2 µM
